The subject of one assay is C57BL/6 mice. In words: Ethanol-induced working memory deficit (win-shift). To be noted: Ethanol 0.5 gm/kg i.p. + AIT-082 30 mg/kg i.p. 1 hour prior. Format: in vivo. The procedure:
Six month old male C57BL/6 mice were evaluated in the win-shift model in combination with treatment with ethanol, a non-specific memory suppressant, and AIT-082. Subjects were treated with saline (control) or AIT-082 (30 mg/kg. i.p.) 1 hour prior to testing. Ethanol was administered at a dose of 0.5 gm/kg i.p. ten minutes prior to testing.

A further assay concerns 38 isolated receptors. Put plainly: Receptor ligand binding in vitro (Nova Labs).

The structures appear in SMILES notation.

Regarding `O=C(CCn1cnc2c(=O)[nH]cnc21)Nc1ccc(C(=O)O)cc1` [AIT-082, N-4-carboxyphenyl-3-(6-oxohydropurin-9-yl)propanamide], the “Correct trials (mean number of correct responses per 10 trials ± S.E.)” value in the assay on C57BL/6 mice turned out to be 7.89 ± 0.54. Besides, the “inhibition of ligand binding” value with 38 isolated receptors is recorded as “no activity”.

The record behind these values is patent publication US6338963B1, “Use of carbon monoxide dependent guanylyl cyclase modifiers to stimulate neuritogenesis” (NeoTherapeutics, Inc., priority 1994, dated 2002).
